Earlier results as cited in patent US11534589B2, “Iontophoretic microneedle device” (LTS LOHMANN THERAPIE-SYSTEME AG, priority 2017, dated 2022).
Where two headings read alike, the source gives them in different places.

Legend:
[1] = maltose microneedles combined with iontophoresis, hairless rats

| Structure (SMILES) | Increase in delivery [1] [fold] | Bioavailability (nasal spray) [%] | Bioavailability (oral tablet) |
| --- | --- | --- | --- |
| CN(Cc1cnc2nc(N)nc(N)c2n1)c1ccc(C(=O)N[C@@H](CCC(=O)O)C(=O)O)cc1 [methotrexate] | 25 | – | – |
| CNS(=O)(=O)Cc1ccc2[nH]cc(CCN(C)C)c2c1.O=C(O)CCC(=O)O [sumatriptan, 3-[2-(dimethylamino)ethyl]-N-methyl-indole-5-methane-sulfonamide succinate (1:1)] | – | ≤ 14 | not more than 15% |
